Assay results from the supplement of paper PMC10307832.

Key:
Assay in all cases: relative viability (nuclei count vs DMSO), 5 days (fraction); higher = more cells survive
[1] = compound: COC1=CC=C(C=C1)CN2C=CC3=C2C=C(C=C3)C(=O)NO + Cc1cc(Nc2cc(N3CCN(C)CC3)nc(Sc3ccc(NC(=O)C4CC4)cc3)n2)n[nH]1 [Tozasertib] (partner 0.1 µM)
In short: (§1)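 Nuclei were stained with Hoechst during a one-step fixation (final 0.05% Triton X-100, 1% formaldehyde, 1 ug/ml Hoechst) carried out 5 days after dosing, then counted on 4× images. The cells, lung cancer lines in 1536-well plates, had been dosed by pin tool the day after seeding with one drug alone or a fixed anchor-drug dose plus five library-drug doses (not always all listed) in √10 steps. Relative viability is the nuclei count in treated wells divided by that in vehicle wells, and each value is the median of duplicate plates.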

Veliparib + Navitoclax = compound: C[C@]1(c2nc3c(C(N)=O)cccc3[nH]2)CCCN1 [Veliparib] + CC1(C)CCC(c2ccc(Cl)cc2)=C(CN2CCN(c3ccc(C(=O)NS(=O)(=O)c4ccc(N[C@H](CCN5CCOCC5)CSc5ccccc5)c(S(=O)(=O)C(F)(F)F)c4)cc3)CC2)C1 [Navitoclax] (partner 0.5 µM)
In short: as §1

Veliparib + Crizotinib = compound: C[C@]1(c2nc3c(C(N)=O)cccc3[nH]2)CCCN1 [Veliparib] + C[C@@H](Oc1cc(-c2cnn(C3CCNCC3)c2)cnc1N)c1c(Cl)ccc(F)c1Cl [Crizotinib] (partner 1 µM)
In short: as §1

Veliparib + Pemetrexed = compound: C[C@]1(c2nc3c(C(N)=O)cccc3[nH]2)CCCN1 [Veliparib] + Nc1nc2[nH]cc(CCc3ccc(C(=O)N[C@@H](CCC(=O)O)C(=O)O)cc3)c2c(=O)[nH]1 [Pemetrexed] (partner 0.2 µM)
In short: as §1

| Cell Line | relative viability ([1]; first compound 0.08 µM) | relative viability ([1]; first compound 0.253 µM) | relative viability ([1]; first compound 0.8 µM) | relative viability ([1]; first compound 2.53 µM) | relative viability ([1]; first compound 8 µM) | relative viability (Veliparib + Navitoclax; first compound 0.02 µM) | relative viability (Veliparib + Navitoclax; first compound 0.06325 µM) | relative viability (Veliparib + Navitoclax; first compound 0.2 µM) | relative viability (Veliparib + Navitoclax; first compound 0.6325 µM) | relative viability (Veliparib + Navitoclax; first compound 2 µM) | relative viability (Veliparib + Crizotinib; first compound 0.02 µM) | relative viability (Veliparib + Crizotinib; first compound 0.06325 µM) | relative viability (Veliparib + Crizotinib; first compound 0.2 µM) | relative viability (Veliparib + Crizotinib; first compound 0.6325 µM) | relative viability (Veliparib + Crizotinib; first compound 2 µM) | relative viability (Veliparib + Pemetrexed; first compound 0.02 µM) | relative viability (Veliparib + Pemetrexed; first compound 0.06325 µM) | relative viability (Veliparib + Pemetrexed; first compound 0.2 µM) | relative viability (Veliparib + Pemetrexed; first compound 0.6325 µM) | relative viability (Veliparib + Pemetrexed; first compound 2 µM) |
| --- | --- | --- | --- | --- | --- | --- | --- | --- | --- | --- | --- | --- | --- | --- | --- | --- | --- | --- | --- | --- |
| BEN | 0.442 | 0.472 | 0.437 | 0.495 | 0.445 | 0.0726 | 0.0807 | 0.0698 | 0.0678 | 0.0746 | 0.735 | 0.97 | 1.01 | 0.783 | 0.884 | 0.576 | 0.771 | 0.743 | 0.795 | 0.631 |
| NCI-H2126 | 0.736 | 0.801 | 0.856 | 0.856 | 0.754 | 0.928 | 0.803 | 0.861 | 0.749 | 0.817 | 0.966 | 1.02 | 0.988 | 0.988 | 0.933 | 0.716 | 0.732 | 0.71 | 0.647 | 0.675 |
| NCI-H2023 | 0.296 | 0.314 | 0.415 | 0.389 | 0.396 | 1.04 | 0.948 | 0.922 | 0.926 | 0.943 | 0.567 | 0.616 | 0.635 | 0.567 | 0.601 |  | 0.212 | 0.27 | 0.221 | 0.231 |
| NCI-H1437 | 0.321 | 0.446 | 0.395 | 0.42 | 0.409 | 1.02 | 0.997 | 1.13 | 1.08 | 1.05 | 0.902 | 0.929 | 0.9 | 0.81 | 0.834 | 0.31 | 0.276 | 0.325 | 0.356 | 0.34 |
| NCI-H322M |  | 0.497 | 0.525 | 0.485 | 0.439 | 1.21 | 1.04 | 1.19 | 1.23 | 1.2 | 0.895 | 0.83 | 0.948 | 0.919 | 0.945 |  | 0.582 | 0.611 | 0.568 | 0.614 |
| COR-L23 | 0.167 | 0.197 | 0.203 | 0.201 | 0.169 | 1.15 | 0.957 | 0.899 | 0.86 | 0.999 | 0.637 | 0.605 | 0.718 | 0.584 | 0.651 | 0.206 | 0.202 | 0.201 | 0.181 | 0.202 |
| NCI-H2009 | 0.65 | 0.514 | 0.741 | 0.73 | 0.64 | 1.22 | 1.07 | 1.2 | 1.1 | 1.31 | 1.1 | 0.934 | 1.05 | 1.03 | 1.03 | 1.09 | 0.952 | 0.957 | 0.978 | 1.07 |
| NCI-H1355 |  | 0.548 | 0.585 | 0.531 | 0.515 |  | 0.872 | 0.9 | 0.904 | 0.971 |  | 1.03 | 0.996 | 0.986 | 0.955 | 0.874 | 0.998 | 1.01 | 0.962 | 1 |
| NCI-H838 |  | 0.267 | 0.293 | 0.274 | 0.267 | 1.2 | 1.1 | 1.12 | 1.11 | 1.2 | 0.859 | 0.9 | 0.851 | 0.83 | 0.895 | 0.262 | 0.255 | 0.244 | 0.269 | 0.269 |
| EPLC-272H | 0.135 |  | 0.346 | 0.235 | 0.272 |  | 1.08 | 0.999 | 1.22 | 1.16 |  | 0.798 | 0.855 | 0.941 | 0.904 |  | 0.273 | 0.359 | 0.283 | 0.418 |
| NCI-H23 | 0.292 | 0.352 | 0.358 | 0.301 | 0.281 | 0.884 | 0.772 | 0.828 | 0.81 | 0.791 | 0.52 | 0.521 | 0.606 | 0.596 | 0.625 | 0.615 | 0.593 | 0.623 | 0.747 | 0.622 |
| EMC-BAC-2 | 0.196 | 0.286 | 0.287 | 0.283 | 0.237 | 1.2 | 1.18 | 1.15 | 1.14 | 1.08 | 0.771 | 0.649 | 0.754 | 0.737 | 0.779 | 0.492 | 0.408 | 0.438 | 0.442 | 0.502 |
| NCI-H2405 | 0.523 | 0.807 | 0.716 | 0.689 | 0.656 |  | 0.734 | 0.847 | 0.833 | 0.69 | 0.845 | 0.788 | 0.802 | 0.815 | 0.909 | 1.08 |  | 1.11 | 0.978 | 1.04 |
| HCC-15 | 0.208 | 0.515 | 0.391 | 0.327 | 0.318 | 0.723 | 0.702 | 0.719 | 0.721 | 0.65 | 0.803 | 0.86 | 0.847 | 0.752 | 0.825 | 0.219 | 0.214 | 0.228 | 0.2 | 0.239 |
| PC-14 | 0.302 | 0.548 | 0.561 | 0.638 | 0.486 | 0.991 | 1.05 | 0.937 | 0.895 | 0.898 | 0.896 | 0.898 | 0.781 | 0.766 | 0.766 |  | 0.13 | 0.168 | 0.143 | 0.134 |
| NCI-H1944 |  | 0.262 | 0.261 | 0.262 | 0.234 | 0.99 | 0.996 | 0.929 | 0.907 | 0.899 | 0.995 | 1.04 | 0.951 | 0.965 | 0.976 | 0.596 | 0.695 | 0.547 | 0.607 | 0.615 |
